What was measured:
Test in all cases: MIC, broth microdilution (CLSI), substance alone or ATB combined with compound at 4 or 8 μg/mL
Type in all cases: cell-based, A. baumannii
ABA UFR161 = test system: ABA UFR161
Experimental: (§1) Compounds of the present invention were assessed against genotyped bacterial strains alone or in combination with an antibacterial. In the assays, MICs of said compounds or combination of antibiotics with fixed concentrations of said compounds (4 or 8 μg/mL) were determined by the broth microdilution method according to the Clinical Laboratory Standards Institute (CLSI-M7-A7). Briefly, compounds alone according to the invention were prepared in DMSO and spotted (2 μL each) on sterile polystyrene plates (Corning, 3788). Combinations of compounds and antibiotics dilutions were prepared in DMSO and spotted (1 μL each) on sterile polystyrene plates (Corning, 3788). Log phase bacterial suspensions were adjusted to a final density of 5·10^5 CFU/mL in cation-adjusted Mueller-Hinton broth (ca-MHB; Becton-Dickinson and Company) and added to each well (98 μL). Assays including Fosfomycin were supplemented with 25 μg/ml of Glucose-6-phosphate. Microplates were incubated for 16-20 h at 35° C. in ambient air. The MIC of the compounds was defined as the lowest concentration of said compounds that prevented bacterial growth as read by visual inspection. The MIC of ATB at each compound concentration was defined as the lowest concentration of ATB that prevented bacterial growth as read by visual inspection.

ABA 19606 = test system: ABA 19606
Experimental: as §1

ABA UFR157 = test system: ABA UFR157
Experimental: as §1

ABA UFR151 = test system: ABA UFR151
Experimental: as §1

ABA UFR159 = test system: ABA UFR159
Experimental: as §1

ABA UFR160 = test system: ABA UFR160
Experimental: as §1

ABA UFR154 = test system: ABA UFR154
Experimental: as §1

CC1(C)[C@H](C(=O)O)N2C(=O)C[C@H]2S1(=O)=O [SUL]
MIC ATB combined with Example 9 @4 μg/ml (ABA UFR161; with Example 9 @4 μg/ml): 8 mg/L
MIC ATB combined with Example 10 @8 μg/ml (ABA UFR161; with Example 10 @8 μg/ml): 16 mg/L
MIC ATB combined with Example 11 @8 μg/ml (ABA UFR161; with Example 11 @8 μg/ml): 8 mg/L
MIC ATB combined with Example 12 @8 μg/ml (ABA UFR161; with Example 12 @8 μg/ml): 8 mg/L
MIC ATB combined with Example 15 @4 μg/ml (ABA UFR161; with Example 15 @4 μg/ml): 16 mg/L
MIC ATB alone (ABA 19606; antibiotic alone): 1 mg/L
MIC ATB combined with Example 1 @8 μg/ml (ABA 19606; with Example 1 @8 μg/ml): 1 mg/L
MIC ATB combined with Example 3 @8 μg/ml (ABA 19606; with Example 3 @8 μg/ml): <=0.25 μg/mL
MIC ATB combined with Example 6 @8 μg/ml (ABA 19606; with Example 6 @8 μg/ml): <=0.25 μg/mL
MIC ATB combined with Example 9 @4 μg/ml (ABA 19606; with Example 9 @4 μg/ml): <=0.25 μg/mL
MIC ATB combined with Example 10 @8 μg/ml (ABA 19606; with Example 10 @8 μg/ml): <=0.25 μg/mL
MIC ATB combined with Example 11 @8 μg/ml (ABA 19606; with Example 11 @8 μg/ml): <=0.25 μg/mL
MIC ATB combined with Example 12 @8 μg/ml (ABA 19606; with Example 12 @8 μg/ml): <=0.25 μg/mL
MIC ATB combined with Example 15 @4 μg/ml (ABA 19606; with Example 15 @4 μg/ml): <=0.25 μg/mL
MIC ATB alone (ABA UFR157; antibiotic alone): 64 mg/L
MIC ATB combined with Example 1 @8 μg/ml (ABA UFR157; with Example 1 @8 μg/ml): 2 mg/L
MIC ATB combined with Example 3 @8 μg/ml (ABA UFR157; with Example 3 @8 μg/ml): 0.5 mg/L
MIC ATB combined with Example 6 @8 μg/ml (ABA UFR157; with Example 6 @8 μg/ml): <0.25 mg/L
MIC ATB combined with Example 9 @4 μg/ml (ABA UFR157; with Example 9 @4 μg/ml): 1 mg/L
MIC ATB combined with Example 10 @8 μg/ml (ABA UFR157; with Example 10 @8 μg/ml): 1 mg/L
MIC ATB combined with Example 11 @8 μg/ml (ABA UFR157; with Example 11 @8 μg/ml): 0.5 mg/L
MIC ATB combined with Example 12 @8 μg/ml (ABA UFR157; with Example 12 @8 μg/ml): 0.5 mg/L
MIC ATB combined with Example 15 @4 μg/ml (ABA UFR157; with Example 15 @4 μg/ml): 1 mg/L
MIC ATB alone (ABA UFR151; antibiotic alone): 2 mg/L
MIC ATB combined with Example 1 @8 μg/ml (ABA UFR151; with Example 1 @8 μg/ml): 0.5 mg/L
MIC ATB combined with Example 3 @8 μg/ml (ABA UFR151; with Example 3 @8 μg/ml): <=0.25 μg/mL
MIC ATB combined with Example 6 @8 μg/ml (ABA UFR151; with Example 6 @8 μg/ml): <0.25 mg/L
MIC ATB combined with Example 9 @4 μg/ml (ABA UFR151; with Example 9 @4 μg/ml): 0.5 mg/L
MIC ATB combined with Example 10 @8 μg/ml (ABA UFR151; with Example 10 @8 μg/ml): <=0.25 μg/mL
MIC ATB combined with Example 11 @8 μg/ml (ABA UFR151; with Example 11 @8 μg/ml): <=0.25 μg/mL
MIC ATB combined with Example 12 @8 μg/ml (ABA UFR151; with Example 12 @8 μg/ml): <=0.25 μg/mL
MIC ATB combined with Example 15 @4 μg/ml (ABA UFR151; with Example 15 @4 μg/ml): <=0.25 μg/mL
MIC ATB alone (ABA UFR159; antibiotic alone): 256 mg/L
MIC ATB combined with Example 1 @8 μg/ml (ABA UFR159; with Example 1 @8 μg/ml): 128 mg/L
MIC ATB combined with Example 3 @8 μg/ml (ABA UFR159; with Example 3 @8 μg/ml): 128 mg/L
MIC ATB combined with Example 6 @8 μg/ml (ABA UFR159; with Example 6 @8 μg/ml): 128 mg/L
MIC ATB combined with Example 9 @4 μg/ml (ABA UFR159; with Example 9 @4 μg/ml): 128 mg/L
MIC ATB combined with Example 10 @8 μg/ml (ABA UFR159; with Example 10 @8 μg/ml): 128 mg/L
MIC ATB combined with Example 11 @8 μg/ml (ABA UFR159; with Example 11 @8 μg/ml): 128 mg/L
MIC ATB combined with Example 12 @8 μg/ml (ABA UFR159; with Example 12 @8 μg/ml): 128 mg/L
MIC ATB combined with Example 15 @4 μg/ml (ABA UFR159; with Example 15 @4 μg/ml): 128 mg/L
MIC ATB alone (ABA UFR160; antibiotic alone): >128 mg/L
MIC ATB combined with Example 1 @8 μg/ml (ABA UFR160; with Example 1 @8 μg/ml): 64 mg/L
MIC ATB combined with Example 3 @8 μg/ml (ABA UFR160; with Example 3 @8 μg/ml): 64 mg/L
MIC ATB combined with Example 6 @8 μg/ml (ABA UFR160; with Example 6 @8 μg/ml): <0.25 mg/L
MIC ATB combined with Example 9 @4 μg/ml (ABA UFR160; with Example 9 @4 μg/ml): 64 mg/L
MIC ATB combined with Example 10 @8 μg/ml (ABA UFR160; with Example 10 @8 μg/ml): 64 mg/L
MIC ATB combined with Example 11 @8 μg/ml (ABA UFR160; with Example 11 @8 μg/ml): 64 mg/L
MIC ATB combined with Example 12 @8 μg/ml (ABA UFR160; with Example 12 @8 μg/ml): 64 mg/L
MIC ATB combined with Example 15 @4 μg/ml (ABA UFR160; with Example 15 @4 μg/ml): 64 mg/L
MIC ATB alone (ABA UFR154; antibiotic alone): 8 mg/L
MIC ATB combined with Example 1 @8 μg/ml (ABA UFR154; with Example 1 @8 μg/ml): 1 mg/L
MIC ATB combined with Example 3 @8 μg/ml (ABA UFR154; with Example 3 @8 μg/ml): 0.5 mg/L
MIC ATB combined with Example 6 @8 μg/ml (ABA UFR154; with Example 6 @8 μg/ml): <=0.25 μg/mL
MIC ATB combined with Example 9 @4 μg/ml (ABA UFR154; with Example 9 @4 μg/ml): 0.5 mg/L
MIC ATB combined with Example 10 @8 μg/ml (ABA UFR154; with Example 10 @8 μg/ml): <=0.25 μg/mL
MIC ATB combined with Example 11 @8 μg/ml (ABA UFR154; with Example 11 @8 μg/ml): <=0.25 μg/mL
MIC ATB combined with Example 12 @8 μg/ml (ABA UFR154; with Example 12 @8 μg/ml): <=0.25 μg/mL
MIC ATB combined with Example 15 @4 μg/ml (ABA UFR154; with Example 15 @4 μg/ml): 0.5 mg/L

Reference: US20200024278A1, “COMPOSITION COMPRISING ANTIBIOTIC COMPOUND AND AN HETEROCYCLIC COMPOUND AND THEIR USE IN PREVENTING OR TREATING BACTERIAL INFECTIONS” (MUTABILIS, priority 2016, published 2020)
